Experimental data reported in US12303497B2, “Anti-androgens for the treatment of metastatic castration-sensitive prostate cancer” (priority 2019, dated 2025).

Test system: patients with metastatic castration-sensitive prostate cancer (mCSPC)
Settings: Grade ≥3

CNC(=O)c1ccc(N2C(=S)N(c3cnc(C#N)c(C(F)(F)F)c3)C(=O)C23CCC3)cc1F [Apalutamide, 4-[7-(6-cyano-5-trifluoromethylpyridin-3-yl)-8-oxo-6-thioxo-5,7-diazaspiro[3.4]oct-5-yl]-2-fluoro-N-methylbenzamide]
20 (3.8) no. (%): AE leading to dose interruption: Rash (grouped term)
7 (1.3) no. (%): AE leading to discontinuation: Rash (grouped term)
2 (0.4) no. (%): AE leading to dose interruption: Chronic obstructive pulmonary disease | AE leading to dose interruption: Hematuria | AE leading to dose interruption: Hypertriglyceridemia | AE leading to dose interruption: Neutropenia
0 no. (%): AE leading to discontinuation: Lip swelling | AE leading to discontinuation: Loss of consciousness | AE leading to discontinuation: Pleural effusion | AE leading to discontinuation: Pulmonary edema | AE leading to discontinuation: Respiratory failure | AE leading to discontinuation: Subdural hemorrhage | AE leading to discontinuation: Sudden death | AE leading to dose interruption: Anxiety | AE leading to dose interruption: Arthralgia | AE leading to dose interruption: Bile duct obstruction | AE leading to dose interruption: Cardiac amyloidosis | AE leading to dose interruption: Cardiac disorder | AE leading to dose interruption: Cardiac failure | AE leading to dose interruption: Cheilitis | AE leading to dose interruption: Chronic hepatitis | AE leading to dose interruption: Constipation | AE leading to dose interruption: Dehydration | AE leading to dose interruption: Depression | AE leading to dose interruption: Diarrhea | AE leading to dose interruption: Diplegia | AE leading to dose interruption: Dizziness | AE leading to dose interruption: Dyspnea | AE leading to dose interruption: Edema | AE leading to dose interruption: Eyelid edema | AE leading to dose interruption: Facial edema | AE leading to dose interruption: Gastritis | AE leading to dose interruption: Hallucination | AE leading to dose interruption: Headache | AE leading to dose interruption: Hepatic cirrhosis | AE leading to dose interruption: Hepatic failure | AE leading to dose interruption: Hot flush | AE leading to dose interruption: Hydronephrosis | AE leading to dose interruption: Hypersensitivity | AE leading to dose interruption: Influenza-like illness | AE leading to dose interruption: Insomnia | AE leading to dose interruption: Mental status changes | AE leading to dose interruption: Muscular weakness | AE leading to dose interruption: Musculoskeletal stiffness | AE leading to dose interruption: Nausea | AE leading to dose interruption: Osteoarthritis | AE leading to dose interruption: Osteoporosis | AE leading to dose interruption: Pathological fracture | AE leading to dose interruption: Peripheral edema | AE leading to dose interruption: Peripheral swelling | AE leading to dose interruption: Proctalgia | AE leading to dose interruption: Pyrexia | AE leading to dose interruption: Renal injury | AE leading to dose interruption: Seizure | AE leading to dose interruption: Stomatitis | AE leading to dose interruption: Subarachnoid hemorrhage | AE leading to dose interruption: Subdural hemorrhage
1 (0.2) no. (%): AE leading to discontinuation: Parkinson's disease | AE leading to discontinuation: Pulmonary embolism | AE leading to discontinuation: Radiculopathy | AE leading to discontinuation: Seizure | AE leading to discontinuation: Sudden cardiac death | AE leading to dose interruption: Atrial fibrillation | AE leading to dose interruption: Blood alkaline phosphatase increased | AE leading to dose interruption: Cardiac failure congestive | AE leading to dose interruption: Cerebrovascular accident | AE leading to dose interruption: Cognitive disorder | AE leading to dose interruption: Confusional state | AE leading to dose interruption: Decreased appetite | AE leading to dose interruption: Diabetes mellitus | AE leading to dose interruption: Dysuria | AE leading to dose interruption: Fall | AE leading to dose interruption: Fatigue | AE leading to dose interruption: Febrile neutropenia | AE leading to dose interruption: Gamma-glutamyltransferase increased | AE leading to dose interruption: Gastric ulcer perforation | AE leading to dose interruption: General physical health deterioration | AE leading to dose interruption: Hematoma | AE leading to dose interruption: Hemorrhage intracranial | AE leading to dose interruption: Hemorrhagic erosive gastritis | AE leading to dose interruption: Hip fracture | AE leading to dose interruption: Hyperbilirubinemia | AE leading to dose interruption: Hypokalemia | AE leading to dose interruption: Hyponatremia | AE leading to dose interruption: Ischemic cardiac events | AE leading to dose interruption: Large intestinal ulcer perforation | AE leading to dose interruption: New cancer neoplasm | AE leading to dose interruption: Rheumatoid arthritis | AE leading to dose interruption: Spinal cord compression | AE leading to dose interruption: Subarachnoid hematoma
3 (0.6) no. (%): AE leading to dose interruption: Asthenia
5 (1.0) no. (%): AE leading to discontinuation: New cancer neoplasm
4 (0.8) no. (%): AE leading to dose interruption: Aspartate aminotransferase or alanine aminotransferase increased | AE leading to dose interruption: Infections | AE leading to dose interruption: Pain (grouped term)
6 (1.1) no. (%): AE leading to dose interruption: Hypertension
